In the supplement of paper PMC11451515:

System: SEM cells
Assay: cell viability relative to DMSO control; higher = less cytotoxic
Conditions: 48 h
Summary of the method: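 NOMO1, SEM and P12-Ichikawa leukemia cells spent at least four passages adapting to each medium before use. They were seeded at 500 cells/well (NOMO1, SEM) or 1000 cells/well (P12-Ichikawa) in 5 μl in 1536-well plates and pin-dosed with library compounds in DMSO at 11 threefold steps from 47 μM down to 0.79 nM. After 48 h at 37°C, CellTiter-Glo One luminescence was read. Viability is reported as a percentage of the DMSO wells on each plate, with cell-free wells as background.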

[1] = HPLM + 10% dialyzed FBS, 0.000781 µM
[2] = HPLM + 10% dialyzed FBS, 0.00234 µM
[3] = HPLM + 10% dialyzed FBS, 0.00702 µM
[4] = HPLM + 10% dialyzed FBS, 0.0211 µM
[5] = HPLM + 10% dialyzed FBS, 0.0632 µM
[6] = HPLM + 10% dialyzed FBS, 0.19 µM
[7] = HPLM + 10% dialyzed FBS, 0.569 µM
[8] = HPLM + 10% dialyzed FBS, 1.71 µM
[9] = HPLM + 10% dialyzed FBS, 5.12 µM
[10] = HPLM + 10% dialyzed FBS, 15.4 µM
[11] = HPLM + 10% dialyzed FBS, 46.1 µM
[12] = RPMI 5 mM glucose + 10% FBS, 0.000781 µM
[13] = RPMI 5 mM glucose + 10% FBS, 0.00234 µM
[14] = RPMI 5 mM glucose + 10% FBS, 0.00702 µM
[15] = RPMI 5 mM glucose + 10% FBS, 0.0211 µM
[16] = RPMI 5 mM glucose + 10% FBS, 0.0632 µM
[17] = RPMI 5 mM glucose + 10% FBS, 0.19 µM
[18] = RPMI 5 mM glucose + 10% FBS, 0.569 µM
[19] = RPMI 5 mM glucose + 10% FBS, 1.71 µM
[20] = RPMI 5 mM glucose + 10% FBS, 5.12 µM
[21] = RPMI 5 mM glucose + 10% FBS, 15.4 µM
[22] = RPMI 5 mM glucose + 10% FBS, 46.1 µM
[23] = RPMI 5 mM glucose + 10% dialyzed FBS, 0.000781 µM
[24] = RPMI 5 mM glucose + 10% dialyzed FBS, 0.00234 µM
[25] = RPMI 5 mM glucose + 10% dialyzed FBS, 0.00702 µM
[26] = RPMI 5 mM glucose + 10% dialyzed FBS, 0.0211 µM
[27] = RPMI 5 mM glucose + 10% dialyzed FBS, 0.0632 µM
[28] = RPMI 5 mM glucose + 10% dialyzed FBS, 0.19 µM
[29] = RPMI 5 mM glucose + 10% dialyzed FBS, 0.569 µM
[30] = RPMI 5 mM glucose + 10% dialyzed FBS, 1.71 µM
[31] = RPMI 5 mM glucose + 10% dialyzed FBS, 5.12 µM
[32] = RPMI 5 mM glucose + 10% dialyzed FBS, 15.4 µM
[33] = RPMI 5 mM glucose + 10% dialyzed FBS, 46.1 µM

Structure (SMILES) | cell viability [1] [%] | cell viability [2] [%] | cell viability [3] [%] | cell viability [4] [%] | cell viability [5] [%] | cell viability [6] [%] | cell viability [7] [%] | cell viability [8] [%] | cell viability [9] [%] | cell viability [10] [%] | cell viability [11] [%] | cell viability [12] [%] | cell viability [13] [%] | cell viability [14] [%] | cell viability [15] [%] | cell viability [16] [%] | cell viability [17] [%] | cell viability [18] [%] | cell viability [19] [%] | cell viability [20] [%] | cell viability [21] [%] | cell viability [22] [%] | cell viability [23] [%] | cell viability [24] [%] | cell viability [25] [%] | cell viability [26] [%] | cell viability [27] [%] | cell viability [28] [%] | cell viability [29] [%] | cell viability [30] [%] | cell viability [31] [%] | cell viability [32] [%] | cell viability [33] [%]
CC1CCN(c2cc(N3CCN(C)CC3)ccc2NC(=O)c2cc(C#N)c[nH]2)CC1 | 122 | 119 | 120 | 129 | 129 | 121 | 124 | 118 | 112 | 102 | 93.6 | 119 | 124 | 136 | 137 | 123 | 123 | 133 | 129 | 92.9 | 102 | 83.5 | – | – | – | – | – | – | – | – | – | – | –
CC(C)C1=N[N](C\2=C1C(=O)N\C(=N2)CC3=CC=C(OCCO)C=C3)C4=C(Cl)C=CC=C4Cl | 95.1 | 125 | 108 | 109 | 95.9 | 16.8 | 8.67 | 6.16 | 5.35 | 4.68 | 3.44 | 52.1 | 98.6 | 85.3 | 75.8 | 76.5 | 13.8 | 6.73 | 4.7 | 4.18 | 4.05 | 2.06 | 90.4 | 102 | 100 | 109 | 107 | 34.2 | 8.73 | 6.73 | 5.07 | 4.3 | 3.59
CC(=O)O/N=C1/C(=C2\C(=O)Nc3cc(Br)ccc32)Nc2ccccc21 | 128 | 110 | 119 | 118 | 111 | 113 | 86.1 | 37.8 | 32.8 | 13.2 | 2.6 | 112 | 116 | 109 | 108 | 119 | 102 | 87.6 | 29.5 | 22.4 | 8.09 | 0.612 | 113 | 122 | 122 | 129 | 100 | 95 | 84.6 | 30.1 | 37.5 | 11.8 | 1.61
